From US8815859B2, “Substituted pyrazin-2-ones and substituted 5,6,7,8-tetrahydroquinoxalin-2-ones and methods of use thereof” (Merck Patent GmbH, priority 2008, dated 2014) come the findings set out here.

In one data set the test system is INS-1 cells. As to the kind of experiment: Insulin secretion assay in INS-1 cells (glucose at 4.2 mM). The conditions noted are these: glucose 4.2 mM, 1 h incubation, control = glucose 4.2 mM; for Insulin secretion, % of ctrl at 10 μM of cpd: 10 μM of compound; for Insulin secretion, % of ctrl at 50 μM of cpd: 50 μM of compound. Type of data set: cell-based, rat. As for the experimental part: INS-1 cells were cultured in complete medium, RPMI1640 containing 1 mM sodium pyruvate, 50 μM 2-mercaptoethanol, 2 mM glutamine, 10 mM HEPES, 100 IU/mL penicillin, and 100 μg/mL streptomycin (CM), supplemented with 10 mM glucose, and 10% (vol/vol) heat-inactivated fetal calf serum (FCS), as described by Asfari et al. (Endocrinology 130: 167-178, 1992).
INS-1 cells were plated and cultured in 48-well plates. After 2 days of culture, the medium was removed and cells were cultured for 24 h with a medium change to 5 mM glucose, 1% FCS. The cells were then washed with Krebs-Ringer Bicarbonate HEPES buffer (KRBH; 135 mM NaCl; 3.6 mM KCl; 5 mM NaHCO3; 0.5 mM NaH2PO4; 0.5 mM MgCl2; 1.5 mM CaCl2 and 10 mM HEPES; pH 7.4) 0,1% BSA containing 2.8 mM glucose and preincubated for 30 min at 37° C. in the same buffer. The cells were then washed twice and incubated for 1 h in KRBH 0.1% BSA containing 4.2 mM glucose and different concentrations of the tested molecule. Insulin concentration in the collected supernatants was measured with ELISA using rat insulin antibody (Insulin Rat Elit PLUS, cat. ref 10-1145-01).
Insulin secretion results are expressed in % of control (glucose 4.2 mM).
Insulin Secretion in INS-1 Cells (Glucose at 4.2 mM)

SMILES strings stand for the structures.

Consider `CCn1ccnc(-c2ccc(S(C)(=O)=O)cc2)c1=O` [Example 5-2, 1-ethyl-3-[4-(methylsulfonyl)phenyl]pyrazin-2(114)-one], for which the melting point lay in the range of 108 to 110 °C. For `CCn1ccnc(-c2ccc3c(c2)OCO3)c1=O` [Example 5-5, 3-(1,3-benzodioxol-5-yl)-1-ethylpyrazin-2(1H)-one], in the data set with INS-1 cells, the “Insulin secretion, % of ctrl at 10 μM of cpd” value was 158 % of ctrl and the “Insulin secretion, % of ctrl at 50 μM of cpd” value was 204 % of ctrl. In turn, `CCn1ccnc(-c2ccc(C(=O)O)cc2)c1=O` [Example 5-15, 4-(4-ethyl-3-oxo-3,4-dihydropyrazin-2-yl)benzoic acid] showed a melting point of 170 °C. Same read-out and setting: to `CCn1ccnc(-c2ccc3cc[nH]c3c2)c1=O` [Example 5-16, 1-ethyl-3-(1H-indol-6-yl)pyrazin-2(1H)-one] belongs 170 °C.

`CCn1c2c(nc(-c3ccc(Cl)cc3)c1=O)CCCC2` [Example 9, 3-(4-chlorophenyl)-1-ethyl-5,6,7,8-tetrahydroquinoxalin-2(1H)-one] yielded a melting point of 110 to 113 °C. For the same molecule, in the data set on INS-1 cells, the “Insulin secretion, % of ctrl at 10 μM of cpd” value is 343 % of ctrl and the “Insulin secretion, % of ctrl at 50 μM of cpd” value is recorded as 371 % of ctrl. Turning to `CCCn1ccnc(-c2ccccc2)c1=O` [Example 9-3, 3-phenyl-1-propylpyrazin-2(1H)-one], in the data set on INS-1 cells, the “Insulin secretion, % of ctrl at 10 μM of cpd” value is recorded as 145 % of ctrl and the “Insulin secretion, % of ctrl at 50 μM of cpd” value was 182 % of ctrl. As to `CC(C)Cn1ccnc(-c2ccc(Cl)cc2)c1=O` [Example 9-7, 3-(4-chlorophenyl)-1-isobutylpyrazin-2(1H)-one], in the data set on INS-1 cells, the “Insulin secretion, % of ctrl at 10 μM of cpd” value is on record as 140 % of ctrl and the “Insulin secretion, % of ctrl at 50 μM of cpd” value was 338 % of ctrl. In the same order, the values of `O=c1c(-c2ccc(Cl)cc2)nccn1CC1CC1` [Example 9-8, 3-(4-chlorophenyl)-1-(cyclopropylmethyl)pyrazin-2(1H)-one] are 172 % of ctrl and 333 % of ctrl.
